Experimental data as given in patent publication US20250282776A1, “Bicyclic TLR7 Agonists and Uses Thereof” (Bristol-Myers Squibb Company, priority 2024, published 2025).

How the values were obtained:
human TLR7 (hTLR7) = molecular target: T1, human TLR7 (hTLR7) (Homo sapiens, UniProt Q9NYK1); test: Human TLR7 agonist activity assay (HEK-Blue TLR7 SEAP reporter); format: cell-based; details: HEK-Blue TLR7 cells, 18 h incubation, Quanti-Blue, OD 620 nm, some values average of multiple measurements
T1 construct: host or cells: HEK-Blue TLR7 cells (engineered human embryonic kidney cells)
T1 sequence (Q9NYK1 27-1049): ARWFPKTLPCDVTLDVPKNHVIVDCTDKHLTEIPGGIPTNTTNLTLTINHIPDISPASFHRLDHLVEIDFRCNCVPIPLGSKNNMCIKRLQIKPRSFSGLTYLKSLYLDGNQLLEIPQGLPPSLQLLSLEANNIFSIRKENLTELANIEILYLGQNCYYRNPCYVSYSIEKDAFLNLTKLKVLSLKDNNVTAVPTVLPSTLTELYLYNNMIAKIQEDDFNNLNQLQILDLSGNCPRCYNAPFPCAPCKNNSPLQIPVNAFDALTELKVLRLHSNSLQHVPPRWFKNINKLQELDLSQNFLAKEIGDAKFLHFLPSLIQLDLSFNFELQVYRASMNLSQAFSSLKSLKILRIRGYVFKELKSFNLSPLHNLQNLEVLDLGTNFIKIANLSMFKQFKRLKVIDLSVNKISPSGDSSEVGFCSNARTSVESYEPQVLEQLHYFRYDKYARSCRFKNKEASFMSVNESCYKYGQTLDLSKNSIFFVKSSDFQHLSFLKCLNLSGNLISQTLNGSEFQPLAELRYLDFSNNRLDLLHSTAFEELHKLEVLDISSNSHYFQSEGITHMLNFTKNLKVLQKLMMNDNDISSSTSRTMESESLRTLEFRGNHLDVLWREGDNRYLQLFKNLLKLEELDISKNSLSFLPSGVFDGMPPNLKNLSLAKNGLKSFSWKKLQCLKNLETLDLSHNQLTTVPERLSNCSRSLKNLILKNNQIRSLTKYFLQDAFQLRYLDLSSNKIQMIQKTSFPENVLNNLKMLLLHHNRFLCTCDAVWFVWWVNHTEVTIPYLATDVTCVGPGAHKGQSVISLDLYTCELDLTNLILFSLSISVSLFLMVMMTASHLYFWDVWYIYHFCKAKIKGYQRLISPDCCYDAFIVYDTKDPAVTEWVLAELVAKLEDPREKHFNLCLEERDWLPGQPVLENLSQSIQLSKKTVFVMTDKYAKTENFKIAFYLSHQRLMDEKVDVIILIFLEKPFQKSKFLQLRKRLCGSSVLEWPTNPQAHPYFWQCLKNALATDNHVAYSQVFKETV
How it was run: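 HEK-Blue TLR7 cells seeded 16-18 h, then exposed to compound for 18 h at 37 °C, 5% CO2. Secreted SEAP read with Quanti-Blue at OD 620 nm after 30 min. EC50 taken as concentration giving half-maximal response between baseline and maximum; some values averaged over repeats.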

human TLR8 (hTLR8) = molecular target: T2, human TLR8 (hTLR8) (Homo sapiens, UniProt Q9NR97); test: Human TLR8 agonist activity assay (measured in a similar manner); format: cell-based; details: HEK-Blue TLR cells, SEAP reporter, measured in a similar manner to TLR7; some values average of multiple measurements
T2 construct: expressed in transfected cells
T2 sequence (Q9NR97 27-1041): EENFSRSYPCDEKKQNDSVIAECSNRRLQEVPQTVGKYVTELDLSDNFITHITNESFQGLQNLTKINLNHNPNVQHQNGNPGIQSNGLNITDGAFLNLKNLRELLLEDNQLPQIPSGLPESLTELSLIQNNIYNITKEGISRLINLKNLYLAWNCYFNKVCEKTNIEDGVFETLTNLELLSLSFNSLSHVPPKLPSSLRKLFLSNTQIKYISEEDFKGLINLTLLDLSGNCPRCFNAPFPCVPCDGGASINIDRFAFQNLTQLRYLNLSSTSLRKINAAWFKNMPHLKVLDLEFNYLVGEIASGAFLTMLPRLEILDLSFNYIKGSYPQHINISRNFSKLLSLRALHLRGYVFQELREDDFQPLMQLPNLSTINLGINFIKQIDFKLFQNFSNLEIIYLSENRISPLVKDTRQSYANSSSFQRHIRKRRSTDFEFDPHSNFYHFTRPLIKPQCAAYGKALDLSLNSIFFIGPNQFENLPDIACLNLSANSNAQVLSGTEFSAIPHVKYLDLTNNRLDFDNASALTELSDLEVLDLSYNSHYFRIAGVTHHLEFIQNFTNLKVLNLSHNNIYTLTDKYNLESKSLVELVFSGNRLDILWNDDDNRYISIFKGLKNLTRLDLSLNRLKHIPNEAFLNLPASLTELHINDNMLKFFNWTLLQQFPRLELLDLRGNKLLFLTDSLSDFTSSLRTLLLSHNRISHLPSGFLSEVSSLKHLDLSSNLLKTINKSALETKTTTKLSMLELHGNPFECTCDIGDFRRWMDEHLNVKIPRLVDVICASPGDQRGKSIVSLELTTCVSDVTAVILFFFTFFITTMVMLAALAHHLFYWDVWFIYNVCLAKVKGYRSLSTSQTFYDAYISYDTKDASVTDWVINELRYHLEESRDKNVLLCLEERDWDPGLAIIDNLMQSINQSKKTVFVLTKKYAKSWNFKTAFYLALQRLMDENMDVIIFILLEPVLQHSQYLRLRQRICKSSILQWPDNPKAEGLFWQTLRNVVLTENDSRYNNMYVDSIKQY
How it was run: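 Compounds were added to HEK-Blue TLR8 reporter cells, pre-incubated 16-18 h, then treated 18 h at 37° C, 5% CO2. SEAP output was measured with Quanti-Blue (30 min) at OD 620 nm. Some values are averages of multiple measurements.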

| SMILES | EC50 (human TLR7 (hTLR7)) | EC50 (human TLR8 (hTLR8)) |
| --- | --- | --- |
| CCCCN(CCO)c1nc(N)nc2cn(Cc3ccc(CO)n4ncnc34)nc12 [Compound 177] | 949 nM | 1460 nM |
| CCCCN(CCO)c1nc(N)nc2cn(Cc3ccc(CNC4CCOCC4)cc3)nc12 [Compound 158] | 1160 nM | 389 nM |
| CCCCN(CCO)c1nc(N)nc2cn(Cc3ccc(CN[C@@H]4CCOC4)c4oc(C)nc34)nc12 [Compound 142] | 1630 nM | 915 nM |
| CCCCN(CCO)c1nc(N)nc2cn(Cc3ccc(CNC(C)(C)COC)cc3OC)nc12 [Compound 33] | 548 nM | 524 nM |
| CCCCN(c1nc(N)nc2cn(Cc3ccc(CN4CCCCC4)cc3OC)nc12)C(C)CO (stereo not shown) [Compound 50] | 374 nM | 949 nM |
| CCCCN(CCO)c1nc(N)nc2cn(Cc3c(F)cc(C4CCN(CCOC)CC4)cc3C#N)nc12 [Compound 149] | 561 nM | 1810 nM |
| CCCCN(CCO)c1nc(N)nc2cn(Cc3c(F)cc(C4=CCNC4)cc3OC)nc12 [Compound 147] | 1810 nM | 2020 nM |
| CCCCN(CCO)c1nc(N)nc2cn(Cc3c(OC)cc(CNC(C)C)cc3OC)nc12 [Compound 146] | 1820 nM | 1770 nM |
| CCCCN(CCO)c1nc(N)nc2cn(Cc3ccc(CN[C@@H]4CCOC4)cc3OC)nc12 [Compound 85] | 148 nM | 1970 nM |
| CCCCN(CCO)c1nc(N)nc2cn(Cc3c(F)cc(CN[C@@H]4CCOC4)cc3OC)nc12 [Compound 75] | 370 nM | 670 nM |
| CCCCN(CCO)c1nc(N)nc2cn(Cc3ccc(CNCC4CCC4)cc3C(F)F)nc12 [Compound 130] | 1900 nM | 1880 nM |
| CCCCN(CCO)c1nc(N)nc2cn(Cc3ccc(CN4CC(OC)C4)cc3OC)nc12 [Compound 5] | 643 nM | 700 nM |
| CCCCN(CCO)c1nc(N)nc2cn(Cc3c(F)cc(C4=CCC(N(CCO)CCO)CC4)cc3OC)nc12 (stereo not shown) [Compound 197] | 570 nM | 2740 nM |
| CCCCN(CCO)c1nc(N)nc2cn(Cc3ccc(CN4CCCNCC4)cc3OC)nc12 [Compound 55] | 349 nM | 2030 nM |
| CCCCN(CCO)c1nc(N)nc2cn(Cc3ccc(CN[C@H]4C[C@H]5COC[C@H]54)cc3OC)nc12 [Compound 22] | 614 nM | 547 nM |
| CCCCN(CCO)c1nc(N)nc2cn(Cc3ccc(CNC4CC(O)C4)cc3OC)nc12 (stereo not shown) [Compound 29] | 2500 nM | 2500 nM |
| CCCCCN(CCO)c1nc(N)nc2cn(Cc3ccc(CN[C@@H]4CCOC4)cc3OC)nc12 [Compound 70] | 1050 nM | 1060 nM |
| CCCCN(CCO)c1nc(N)nc2cn(Cc3ccc(CN[C@H]4CCOC[C@H]4C)cc3OC)nc12 [Compound 139] | 1220 nM | 542 nM |
| CCCCN(c1nc(N)nc2cn(Cc3ccc(CN4CCCCC4)cc3OC)nc12)C(C)CO (single isomer, unassigned) [Compound 49-1, 2-((5-amino-2-(2-methoxy-4-(piperidin-1-ylmethyl)benzyl)-2H-pyrazolo[4,3-d]pyrimidin-7-yl)(butyl)amino)propan-1-ol] | 374 nM | 949 nM |

| SMILES | EC50 (human TLR7 (hTLR7)) | EC50 (human TLR8 (hTLR8)) |
| --- | --- | --- |
| CCCCN(CCO)c1nc(N)nc2cn(Cc3ccc(CNCCOC)cc3)nc12 [Compound 161] | 658 nM | 506 nM |
| CCCCN(CCO)c1nc(N)nc2cn(Cc3ccc(CN4CC(CCOC)C4)c4cccnc34)nc12 [Compound 48] | 182 nM | 227 nM |
| CCCCN(CCO)c1nc(N)nc2cn(Cc3ccc(CN[C@H]4CCN(C(C)C)C4)cc3OC)nc12 [Compound 56] | 1700 nM | 2310 nM |
| CCCCN(CCO)c1nc(N)nc2cn(Cc3ccc(CNC4C[C@@H](C)O[C@@H](C)C4)cc3OC)nc12 (stereo partly shown) [Compound 166] | 694 nM | 529 nM |
| CCCCN(CCO)c1nc(N)nc2cn(Cc3c(F)cc(C4=CCC(NC5CC6(COC6)C5)CC4)cc3OC)nc12 (stereo not shown) [Compound 192] | 550 nM | 1600 nM |
| CCCCN(CCO)c1nc(N)nc2cn(Cc3ccc(CNC4CCOCC4)c4cccnc34)nc12 [Compound 58] | 757 nM | 488 nM |
| CCCCN(CCO)c1nc(N)nc2cn(Cc3ccc(CNC4(C)CCOCC4)cc3OC)nc12 [Compound 88, 2-((5-Amino-2-(2-methoxy-4-(((4-methyltetrahydro-2H-pyran-4-yl)amino)methyl)benzyl)-2H-pyrazolo[4,3-d]pyrimidin-7-yl)(butyl)amino)ethan-1-ol] | 805 nM | 535 nM |
| CCCCN(CCO)c1nc(N)nc2cn(Cc3c(F)cc(C4CCN(CC(C)(C)O)CC4)cc3OC)nc12 [Compound 36] | 144 nM | 525 nM |
| CCCCN(CCO)c1nc(N)nc2cn(Cc3cccc4c3OCCN4C(=O)CN(C)C)nc12 [Compound 90] | 2150 nM | 2410 nM |
| CCCCN(CCO)c1nc(N)nc2cn(Cc3ccc(CNCC)cc3OC)nc12 [Compound 17] | 1150 nM | 745 nM |
| CCCCN(CCO)c1nc(N)nc2cn(Cc3ccc(CN4CCCC4)cc3C(F)F)nc12 [Compound 97] | 1050 nM | 1050 nM |
| CCCCN(CCO)c1nc(N)nc2cn(Cc3ccc(CNC4CC(F)(F)C4)c4cccnc34)nc12 [Compound 64] | 2110 nM | 1550 nM |
| CCCCN(CCO)c1nc(N)nc2cn(Cc3c(F)cc(CN4CC5(COC5)C4)cc3OC)nc12 [Compound 83] | 511 nM | 2260 nM |
| CCCCN(CCO)c1nc(N)nc2cn(Cc3ccc(CN[C@H]4CC[C@H](O)CC4)c4cccnc34)nc12 [Compound 169] | 1090 nM | 628 nM |
| CCCCN(CCO)c1nc(N)nc2cn(Cc3ccc(CNC4CCOCC4)cc3OC)nc12 [Compound 3] | 970 nM | 596 nM |
| CCCCN(CCO)c1nc(N)nc2cn(Cc3ccc(CNC4CCOCC4)c4scnc34)nc12 [Compound 180, 2-((5-Amino-2-((7-(((tetrahydro-2H-pyran-4-yl)amino)methyl)benzo[d]thiazol-4-yl)methyl)-2H-pyrazolo[4,3-d]pyrimidin-7-yl)(butyl)amino)ethan-1-ol] | 294 nM | 230 nM |
| CCCCN(CCO)c1nc(N)nc2cn(Cc3ccc(CN4CCCCC4)cc3OC)nc12 [Compound 2] | 1340 nM | 1010 nM |
| CCCCN(CCO)c1nc(N)nc2cn(Cc3ccc(CN4CC5(CC(OC)C5)C4)cc3OC)nc12 [Compound 6] | 680 nM | 892 nM |
| CCCCN(CCO)c1nc(N)nc2cn(Cc3c(F)cc(CNCCO)cc3F)nc12 [Compound 113] | 937 nM | 2960 nM |
